Holding throughout (type): biochemical
One assay deals with CDK2-cycline E (Homo sapiens, UniProt P24941). In words: Kinase assay (radioactive phosphate incorporation), CDK2-cyclin E. The following applies: read-out: Kinase Inhibition pIC50 CDK2-cycline E (converted). The method, boiled down:
(§1)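 Each recombinant kinase was combined with its polypeptide substrate in pH 7.4 assay buffer. Mg/ATP mix carrying [γ-32P]-ATP (100 μM ATP) was then added and the plate incubated at 30° C. After stopping on ice, the reaction was filtered, washed with 75 mM orthophosphoric acid, dried and counted.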

For another assay, the target named is CDK2-cyclin A (Homo sapiens, UniProt P24941). In words: Kinase assay (radioactive phosphate incorporation), CDK2-cyclin A. The following applies: read-out: Kinase Inhibition pIC50 CDK2-cyclin A (converted). The protocol: Kinase assays. The compounds of the invention above were investigated for their ability to inhibit the enzymatic activity of various protein kinases (Table 2). This was achieved by measurement of incorporation of radioactive phosphate from ATP into appropriate polypeptide substrates. Recombinant protein kinases and kinase complexes were produced or obtained commercially. Assays were performed using 96-well plates and appropriate assay buffers (typically 25 mM β-glycerophosphate, 20 mM MOPS, 5 mM EGTA, 1 mM DTT, 1 mM […], pH 7.4), into which were added 2-4 μg of active enzyme with appropriate substrates. The reactions were initiated by addition of Mg/ATP mix (15 mM MgCl2+100 μM ATP with 30-50 kBq per well of [γ-^32P]-ATP) and mixtures incubated as required at 30° C. Reactions were stopped on ice, followed by filtration through p81 filterplates or GF/C filterplates (Whatman Polyfiltronics, Kent, UK). After washing 3 times with 75 mM aq orthophosphoric acid, plates were dried, scintillant added and incorporated radioactivity measured in a scintillation counter (TopCount, Packard Instruments, Pangbourne, Berks, UK). Compounds for kinase assay were made up as 10 mM stocks in DMSO and diluted into 10% DMSO in assay buffer.

For another assay, the target named is CDK4-cyclin D1 (Homo sapiens, UniProt P11802). In words: Kinase assay (radioactive phosphate incorporation), CDK4-cyclin D1. To be noted: read-out: Kinase Inhibition pIC50 CDK4-cyclin D1 (converted). In outline: as §1
A further assay has as its target T1, Aurora A kinase (Homo sapiens, UniProt O14965).
T1 construct: purchased
T1 sequence (O14965 1-403): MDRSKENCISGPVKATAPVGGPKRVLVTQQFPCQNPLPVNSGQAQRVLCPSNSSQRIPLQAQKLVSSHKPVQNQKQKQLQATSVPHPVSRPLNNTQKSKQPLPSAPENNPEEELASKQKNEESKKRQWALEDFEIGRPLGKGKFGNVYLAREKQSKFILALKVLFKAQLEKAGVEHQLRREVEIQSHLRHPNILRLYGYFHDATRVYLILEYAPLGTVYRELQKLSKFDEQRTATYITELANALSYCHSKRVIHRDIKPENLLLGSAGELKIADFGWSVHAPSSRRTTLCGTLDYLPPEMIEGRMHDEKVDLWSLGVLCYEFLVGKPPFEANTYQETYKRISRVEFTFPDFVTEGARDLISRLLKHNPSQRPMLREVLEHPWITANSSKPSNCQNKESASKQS
Nature of the assay: Aurora-A (human) kinase assay (Kemptide substrate). To be noted: pIC50 is -log(IC50, M); 15 μM ATP; read-out: Kinase Inhibition pIC50 Aurora A kinase (converted). The method, boiled down:
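Kemptide (LRRASLG, 200 μM) phosphorylation by 5-10 ng commercial aurora-A measured as [γ-33P] incorporation at 15 μM ATP with 10 mM Mg acetate, pH 7.0 MOPS buffer. Reaction ran 40 min at room temperature; acid-stopped, captured on P81 filters, scintillation read.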

The next assay deals with CDK1-cyclin B (Homo sapiens, UniProt P06493). In words: Kinase assay (radioactive phosphate incorporation), CDK1-cyclin B. To be noted: read-out: Kinase Inhibition pIC50 CDK1-cyclin B (converted). The method, boiled down:
as §1

In a further assay the target is CDK9/cyclin T1 (Homo sapiens, UniProt P50750). In words: CDK 9 assay (CTD peptide substrate). To be noted: read-out: Kinase Inhibition pIC50 CDK9-cyclin T1 (converted). In outline: (§2)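 Inhibition measured against recombinant human kinase/cyclin complex phosphorylating biotin-(Tyr-Ser-Pro-Thr-Ser-Pro-Ser)4 peptide, 100 μM radiolabelled ATP, 45 min at 30° C. Product quantified by filter capture and scintillation counting.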

For a further assay, the target named is GSK3b (Homo sapiens, UniProt P49841). Nature of the assay: Kinase assay (radioactive phosphate incorporation), GSK-3b. The following applies: read-out: Kinase Inhibition pIC50 GSK-3b (converted). In outline:
as §1

A further assay has as its target CDK7/cyclin H (Homo sapiens, UniProt P50613). In words: CDK 7 assay (CTD peptide substrate). The following applies: read-out: Kinase Inhibition pIC50 CDK7-cyclin H (converted). In outline: as §2

Chain of CDK1-cyclin B (P06493 whole entry): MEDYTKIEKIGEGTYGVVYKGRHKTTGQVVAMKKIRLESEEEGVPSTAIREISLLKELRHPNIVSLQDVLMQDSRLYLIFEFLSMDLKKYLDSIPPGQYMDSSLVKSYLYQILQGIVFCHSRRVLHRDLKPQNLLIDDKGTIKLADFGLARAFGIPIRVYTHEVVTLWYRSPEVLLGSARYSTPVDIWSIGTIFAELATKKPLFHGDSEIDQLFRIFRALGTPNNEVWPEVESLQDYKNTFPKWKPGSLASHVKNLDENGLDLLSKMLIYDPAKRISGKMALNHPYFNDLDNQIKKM
Chain of CDK1-cyclin B (P14635 whole entry partner): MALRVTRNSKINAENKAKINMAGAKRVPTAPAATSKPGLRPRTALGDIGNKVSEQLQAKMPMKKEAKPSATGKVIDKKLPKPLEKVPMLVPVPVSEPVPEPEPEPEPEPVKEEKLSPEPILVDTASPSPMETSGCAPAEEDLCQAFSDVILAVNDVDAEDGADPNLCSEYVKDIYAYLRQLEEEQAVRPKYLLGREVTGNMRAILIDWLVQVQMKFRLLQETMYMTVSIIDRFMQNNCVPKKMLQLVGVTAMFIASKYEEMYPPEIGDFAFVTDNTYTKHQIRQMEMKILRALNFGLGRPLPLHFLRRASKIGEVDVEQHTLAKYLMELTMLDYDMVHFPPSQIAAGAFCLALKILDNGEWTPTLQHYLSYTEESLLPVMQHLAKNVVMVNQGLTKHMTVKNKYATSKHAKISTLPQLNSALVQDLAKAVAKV
Chain of GSK3b (P49841 whole entry, species assumed): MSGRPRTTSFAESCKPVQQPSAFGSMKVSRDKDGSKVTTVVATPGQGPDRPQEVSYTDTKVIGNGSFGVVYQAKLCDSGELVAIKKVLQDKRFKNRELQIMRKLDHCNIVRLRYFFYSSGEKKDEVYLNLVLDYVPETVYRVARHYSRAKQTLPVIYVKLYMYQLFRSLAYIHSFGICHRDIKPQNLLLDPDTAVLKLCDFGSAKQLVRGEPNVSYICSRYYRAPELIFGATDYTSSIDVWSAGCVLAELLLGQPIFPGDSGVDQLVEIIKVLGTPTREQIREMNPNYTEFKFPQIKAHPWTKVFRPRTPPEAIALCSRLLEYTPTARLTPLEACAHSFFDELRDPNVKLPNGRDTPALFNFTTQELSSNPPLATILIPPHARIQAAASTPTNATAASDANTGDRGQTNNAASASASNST
Chain of CDK9/cyclin T1 (P50750 whole entry): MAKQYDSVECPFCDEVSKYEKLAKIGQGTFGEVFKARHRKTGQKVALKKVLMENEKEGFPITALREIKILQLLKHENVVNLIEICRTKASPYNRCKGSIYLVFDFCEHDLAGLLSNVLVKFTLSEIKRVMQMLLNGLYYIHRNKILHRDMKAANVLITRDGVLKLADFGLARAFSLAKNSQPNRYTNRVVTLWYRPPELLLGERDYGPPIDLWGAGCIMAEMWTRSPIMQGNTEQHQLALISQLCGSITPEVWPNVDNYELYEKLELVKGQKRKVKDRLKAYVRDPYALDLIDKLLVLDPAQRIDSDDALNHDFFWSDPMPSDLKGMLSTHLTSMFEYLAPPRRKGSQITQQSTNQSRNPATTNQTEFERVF
Chain of CDK9/cyclin T1 (O60563 whole entry partner): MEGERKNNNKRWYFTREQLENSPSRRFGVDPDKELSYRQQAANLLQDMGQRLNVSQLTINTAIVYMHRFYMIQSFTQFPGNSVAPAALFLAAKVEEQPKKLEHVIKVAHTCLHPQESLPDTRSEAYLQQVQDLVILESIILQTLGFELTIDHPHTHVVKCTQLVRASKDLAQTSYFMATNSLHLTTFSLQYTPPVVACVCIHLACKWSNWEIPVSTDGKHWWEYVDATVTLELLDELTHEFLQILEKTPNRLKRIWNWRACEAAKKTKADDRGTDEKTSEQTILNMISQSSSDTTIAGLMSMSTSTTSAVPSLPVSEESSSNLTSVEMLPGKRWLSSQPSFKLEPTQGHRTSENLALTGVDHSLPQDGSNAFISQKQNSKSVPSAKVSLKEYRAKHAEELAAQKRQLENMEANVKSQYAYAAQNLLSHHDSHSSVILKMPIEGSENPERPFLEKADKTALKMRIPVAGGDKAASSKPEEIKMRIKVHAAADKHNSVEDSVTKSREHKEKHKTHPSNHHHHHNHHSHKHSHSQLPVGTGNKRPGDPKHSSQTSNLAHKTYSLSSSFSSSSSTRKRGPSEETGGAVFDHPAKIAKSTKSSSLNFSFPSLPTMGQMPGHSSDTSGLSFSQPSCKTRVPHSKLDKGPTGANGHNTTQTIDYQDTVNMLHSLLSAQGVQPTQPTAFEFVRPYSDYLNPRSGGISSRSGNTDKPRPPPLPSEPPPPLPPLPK
Chain of CDK7/cyclin H (P50613 whole entry): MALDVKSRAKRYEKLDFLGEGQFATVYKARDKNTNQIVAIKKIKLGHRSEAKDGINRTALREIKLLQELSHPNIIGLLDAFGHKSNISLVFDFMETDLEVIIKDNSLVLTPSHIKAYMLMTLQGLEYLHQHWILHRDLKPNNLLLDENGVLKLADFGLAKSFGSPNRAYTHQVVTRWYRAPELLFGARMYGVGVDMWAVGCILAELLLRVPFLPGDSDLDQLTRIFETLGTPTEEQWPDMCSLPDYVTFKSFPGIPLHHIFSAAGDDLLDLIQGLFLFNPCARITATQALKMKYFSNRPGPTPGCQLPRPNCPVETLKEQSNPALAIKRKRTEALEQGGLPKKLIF
Chain of CDK7/cyclin H (P51946 whole entry partner): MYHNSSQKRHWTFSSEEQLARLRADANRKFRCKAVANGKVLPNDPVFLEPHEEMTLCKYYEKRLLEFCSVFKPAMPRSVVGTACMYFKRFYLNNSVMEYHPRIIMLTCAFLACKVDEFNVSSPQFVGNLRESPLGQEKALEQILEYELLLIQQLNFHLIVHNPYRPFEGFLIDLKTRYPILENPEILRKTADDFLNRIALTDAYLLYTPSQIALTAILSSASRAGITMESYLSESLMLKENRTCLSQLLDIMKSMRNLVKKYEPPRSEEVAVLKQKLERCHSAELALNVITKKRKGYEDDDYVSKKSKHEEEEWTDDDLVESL
Chain of CDK4-cyclin D1 (P11802 whole entry): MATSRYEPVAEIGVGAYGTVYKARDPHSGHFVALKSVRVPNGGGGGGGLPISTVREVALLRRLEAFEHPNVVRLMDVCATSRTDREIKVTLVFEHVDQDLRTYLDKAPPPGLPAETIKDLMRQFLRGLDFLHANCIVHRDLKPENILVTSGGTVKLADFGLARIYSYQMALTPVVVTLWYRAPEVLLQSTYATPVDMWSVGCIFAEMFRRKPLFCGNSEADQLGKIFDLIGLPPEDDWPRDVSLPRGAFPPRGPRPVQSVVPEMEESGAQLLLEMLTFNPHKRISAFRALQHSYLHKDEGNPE
Chain of CDK4-cyclin D1 (P24385 whole entry partner): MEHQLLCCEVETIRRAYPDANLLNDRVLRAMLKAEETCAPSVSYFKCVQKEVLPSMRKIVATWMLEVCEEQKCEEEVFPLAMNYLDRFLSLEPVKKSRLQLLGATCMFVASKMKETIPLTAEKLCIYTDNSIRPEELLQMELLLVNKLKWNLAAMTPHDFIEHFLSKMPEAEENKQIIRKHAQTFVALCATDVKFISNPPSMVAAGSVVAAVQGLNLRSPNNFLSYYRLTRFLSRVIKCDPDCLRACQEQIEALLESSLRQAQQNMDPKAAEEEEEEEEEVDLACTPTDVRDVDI

Take `Cc1nc(C)c(-c2ccnc(Nc3cccc(S(=O)(=O)NCCO)c3)n2)s1` [Compound 78, 3-[4-(2,4-Dimethyl-thiazol-5-yl)-pyrimidin-2-ylamino]-N-(2-hydroxy-ethyl)-benzenesulfonamide]: the IC50 at CDK2-cycline E was 316 nM; at CDK2-cyclin A, 2000 nM; at CDK4-cyclin D1, 501 nM; at Aurora A kinase, 631 nM; at CDK1-cyclin B, 2000 nM; at CDK9/cyclin T1, 158 nM. Moreover, the IC50 is 1000 nM on GSK3b and 1260 nM on CDK7/cyclin H.
Take `Cc1nc(C)c(-c2ccnc(Nc3cccc(CNC(=O)c4ccccc4)c3)n2)s1` [Compound 9, N-{3-[4-(2,4-Dimethyl-thiazol-5-yl)-pyrimidin-2-ylamino]-benzyl}-benzamide]: the IC50 at CDK2-cycline E was 158 nM; at CDK2-cyclin A, 1000 nM; on CDK4-cyclin D1 it was 251 nM; at Aurora A kinase it was 158 nM; on CDK1-cyclin B it was 631 nM; at CDK9/cyclin T1 it was 501 nM. The IC50 at GSK3b is 2000 nM; on CDK7/cyclin H it was 5010 nM.
With `Cc1nc(C)c(-c2ccnc(Nc3cccc(CNS(=O)(=O)C(F)(F)F)c3)n2)s1` [Compound 11, N-{3-[4-(2,4-Dimethyl-thiazol-5-yl)-pyrimidin-2-ylamino]-benzyl}-C,C,C-trifluoro-methanesulfonamide], the IC50 on CDK2-cycline E was 158 nM; on CDK2-cyclin A it was 1580 nM; on CDK4-cyclin D1, 1260 nM; at Aurora A kinase, 200 nM; on CDK1-cyclin B, 1580 nM; on CDK9/cyclin T1 it was 1260 nM. Also, the results for the IC50 on GSK3b and on CDK7/cyclin H were 1580 nM and 631 nM, respectively.
On to `Cc1nc(C)c(-c2ccnc(Nc3ccc(S(=O)(=O)NCCO)cc3)n2)s1` [Compound 69, 4-[4-(2,4-Dimethyl-thiazol-5-yl)-pyrimidin-2-ylamino]-N-(2-hydroxy-ethyl)-benzenesulfonamide], for which the IC50 at CDK2-cycline E was 10 nM; at CDK2-cyclin A, 20 nM; at CDK4-cyclin D1, 1000 nM; on Aurora A kinase, 79.4 nM; at CDK1-cyclin B, 10 nM; at CDK9/cyclin T1, 398 nM. Also, the results for the IC50 on GSK3b and at CDK7/cyclin H were 1580 nM and 2000 nM, respectively.
Consider `Cc1nc(C)c(-c2ccnc(Nc3cccc(S(C)(=O)=O)c3)n2)s1` [Compound 4, [4-(2,4-Dimethyl-thiazol-5-yl)-pyrimidin-2-yl]-(3-methanesulfonyl-phenyl)-amine], for which the IC50 at CDK2-cycline E is 316 nM; at CDK2-cyclin A, 1000 nM; on CDK4-cyclin D1, 1260 nM; on Aurora A kinase, 251 nM; at CDK1-cyclin B, 501 nM; at CDK9/cyclin T1, 251 nM. Moreover, the results for the IC50 at GSK3b and on CDK7/cyclin H were 398 nM and 1000 nM, respectively.
As for `COCCNS(=O)(=O)c1ccc(Nc2nccc(-c3sc(N)nc3C)n2)cc1` [Compound 41, 4-[4-(2-Amino-4-methyl-thiazol-5-yl)-pyrimidin-2-ylamino]-N-(2-methoxy-ethyl)-benzenesulfonamide], the IC50 on CDK2-cycline E was 7.94 nM; at CDK2-cyclin A, 15.8 nM; at CDK4-cyclin D1, 501 nM; on Aurora A kinase it was 50.1 nM; at CDK1-cyclin B it was 50.1 nM; on GSK3b it was 794 nM. Besides, the IC50 at CDK7/cyclin H was 3160 nM.
Take `CNc1nc(C)c(-c2ccnc(Nc3ccc(S(=O)(=O)NCCOC)cc3)n2)s1` [Compound 40, N-(2-Methoxy-ethyl)-4-[4-(4-methyl-2-methylamino-thiazol-5-yl)-pyrimidin-2-ylamino]-benzenesulfonamide]: the IC50 on CDK2-cycline E was 3.16 nM; at CDK2-cyclin A it was 15.8 nM; on Aurora A kinase, 5.01 nM; on CDK1-cyclin B it was 79.4 nM; at CDK9/cyclin T1, 158 nM; at GSK3b, 501 nM.

Source of the values: patent US20090137572A1, “2-substituted-4-heteroaryl-pyrimidines useful for the treatment of proliferative disorders” (priority 2004, published 2009).
